Assay results taken from US20260193295A1, “CILAGICIN COMPOUNDS AND METHODS OF USE THEREOF” (priority 2022, published 2026).
Values after ≈ are worked out from the molar mass of the structure shown. Read-outs that look alike come from different tables or passages of the source. Positions of bridges follow the written chain, without caps; N, C: chain ends. Non-standard residues stand in square brackets, D forms with d. Residues, ends and D or L forms follow the SMILES beside them. *: point of attachment. X2 = O=C(c1cc2ccccc2n1Cc1ccccc1)*; dDab = NCC[C@@H](N)C(=O)O; Dab = NCC[C@H](N)C(=O)O

Columns and labels:
[1] = test system: vancomycin-resistant Enterococci clinical isolates; conditions: cited from earlier work
Staphylococcus aureus = type: cell-based
Procedure: MIC assay were conducted using the protocol recommended by the Clinical and Laboratory Standards Institute.(37) Culture conditions (temperature, medium) are detailed in Table 3. All compounds were dissolved in sterile DMSO (ATCC, USA) to give a concentration of 6.4 mg/mL. Vancomycin hydrochloride was used as positive controls. Tested compounds were serially diluted across 96-well plates using a 2-fold serial dilution in a volume of 50 μL. An overnight culture of an assay strain was diluted 5,000-fold in fresh medium. 50 μL of this dilution was added into each well, giving a final volume of 100 μL in each well. Compounds were assayed at concentrations ranging from 64 μg/mL to 0.06 μg/mL. The top and bottom rows of each plate were filled with 100 μL of media to avoid edge effects. […] For Clostridium difficile plates were statically incubated under anaerobic conditions (Vinyl anaerobic chamber, 37° C., 5% H2, 5% CO2, 90% N2). For Streptococcus pneumoniae plates were statically incubated under aerobic conditions supplemented with 5% C02 (37° C.). All MICs were performed in technical duplicate (n=2) and repeated three independent times (n=3).

[2] = Enterococci clinical isolate code 781
[3] = Enterococci clinical isolate code 782
[4] = Enterococci clinical isolate code 783
[5] = Enterococci clinical isolate code 784
[6] = Enterococci clinical isolate code 785
[7] = Enterococci clinical isolate code 786
[8] = Enterococci clinical isolate code 787
[9] = Enterococci clinical isolate code 788
[10] = Enterococci clinical isolate code 789
[11] = Enterococci clinical isolate code 790
[12] = Enterococci clinical isolate code 791
[13] = Enterococci clinical isolate code 792
[14] = Enterococci clinical isolate code 793
[15] = Enterococci clinical isolate code 794
[16] = Enterococci clinical isolate code 795
[17] = Enterococci clinical isolate code 796
[18] = Enterococci clinical isolate code 797
[19] = Enterococci clinical isolate code 798
[20] = Enterococci clinical isolate code 799
[21] = Enterococci clinical isolate code 800
[22] = Enterococci clinical isolate code 801
[23] = Enterococci clinical isolate code 802
[24] = Enterococci clinical isolate code 803
[25] = Enterococci clinical isolate code 804
[26] = Enterococci clinical isolate code 805
[27] = Enterococci clinical isolate code 806
[28] = Enterococci clinical isolate code 807
[29] = Enterococci clinical isolate code 808
[30] = Enterococci clinical isolate code 809
[31] = Enterococci clinical isolate code 810

Compound	MIC [1, 2] [µg/mL]	MIC [1, 3] [µg/mL]	MIC [1, 4] [µg/mL]	MIC [1, 5] [µg/mL]	MIC [1, 6] [µg/mL]	MIC [1, 7] [µg/mL]	MIC [1, 8] [µg/mL]	MIC [1, 9] [µg/mL]	MIC [1, 10] [µg/mL]	MIC [1, 11] [µg/mL]	MIC [1, 12] [µg/mL]	MIC [1, 13] [µg/mL]	MIC [1, 14] [µg/mL]	MIC [1, 15] [µg/mL]	MIC [1, 16] [µg/mL]	MIC [1, 17] [µg/mL]	MIC [1, 18] [µg/mL]	MIC [1, 19] [µg/mL]	MIC [1, 20] [µg/mL]	MIC [1, 21] [µg/mL]	other results
CC1(C)S[C@@H]2[C@H](NC(=O)[C@H](N)c3ccccc3)C(=O)N2[C@H]1C(=O)O [Ampicillin]	1 (≈ 2.86 µM)	1 (≈ 2.86 µM)	64 (≈ 183 µM)	1 (≈ 2.86 µM)	2 (≈ 5.72 µM)	0.5 (≈ 1.43 µM)	8 (≈ 22.9 µM)	1 (≈ 2.86 µM)	0.12 (≈ 0.343 µM)	64 (≈ 183 µM)	1 (≈ 2.86 µM)	64 (≈ 183 µM)	1 (≈ 2.86 µM)	64 (≈ 183 µM)	2 (≈ 5.72 µM)	2 (≈ 5.72 µM)	1 (≈ 2.86 µM)	1 (≈ 2.86 µM)	1 (≈ 2.86 µM)	1 (≈ 2.86 µM)	MIC [1, 22]: 1 µg/mL (≈ 2.86 µM); MIC [1, 23]: 64 µg/mL (≈ 183 µM); MIC [1, 24]: 128 µg/mL (≈ 366 µM); MIC [1, 25]: 1 µg/mL (≈ 2.86 µM); MIC [1, 26]: 1 µg/mL (≈ 2.86 µM); MIC [1, 27]: 4 µg/mL (≈ 11.4 µM); MIC [1, 28]: 32 µg/mL (≈ 91.6 µM); MIC [1, 29]: 2 µg/mL (≈ 5.72 µM); MIC [1, 30]: 0.5 µg/mL (≈ 1.43 µM); MIC [1, 31]: 1 µg/mL (≈ 2.86 µM)
CC(C)[C@@H]1NC(=O)[C@H](Cc2ccc(O)cc2)NC(=O)CNC(=O)[C@@H](CC(=O)O)NC(=O)[C@@H](CC(N)=O)NC(=O)CNC(=O)[C@H](CC(=O)O)NC(=O)[C@@H](CCN)NC(=O)[C@@H](NC(=O)[C@@H](CO)NC(=O)c2cc3ccccc3n2Cc2ccccc2)[C@@H](C)OC(=O)[C@H](Cc2ccccc2)NC(=O)[C@H](CCN)NC1=O [Cilagicin L4] (X2-[dS]T[dDab]DG[dN][dD]GYV[Dab]F; ester 2-C)																					MIC (Staphylococcus aureus): 8 µg/mL (≈ 5.37 µM)
Teicoplanin	>64	0.5	2	0.5	0.5	0.25	>64	1	>64	1	0.5	1	0.5	64	0.5	1	1	1	0.5	0.5	MIC [1, 22]: 1 µg/mL; MIC [1, 23]: 64 µg/mL; MIC [1, 24]: >64 µg/mL; MIC [1, 25]: 0.5 µg/mL; MIC [1, 26]: 0.5 µg/mL; MIC [1, 27]: 1 µg/mL; MIC [1, 28]: 1 µg/mL; MIC [1, 29]: 0.5 µg/mL; MIC [1, 30]: 64 µg/mL; MIC [1, 31]: 0.5 µg/mL
CCCCCCCCCC(=O)N[C@@H](Cc1c[nH]c2ccccc12)C(=O)N[C@H](CC(N)=O)C(=O)N[C@@H](CC(=O)O)C(=O)N[C@@H]1C(=O)NCC(=O)N[C@@H](CCCN)C(=O)N[C@@H](CC(=O)O)C(=O)N[C@H](C)C(=O)N[C@@H](CC(=O)O)C(=O)NCC(=O)N[C@H](CO)C(=O)N[C@@H]([C@H](C)CC(=O)O)C(=O)N[C@@H](CC(=O)c2ccccc2N)C(=O)O[C@@H]1C [Daptomycin]	4 (≈ 2.47 µM)	2 (≈ 1.23 µM)	4 (≈ 2.47 µM)	4 (≈ 2.47 µM)	2 (≈ 1.23 µM)	0.5 (≈ 0.309 µM)	8 (≈ 4.94 µM)	1 (≈ 0.617 µM)	8 (≈ 4.94 µM)	4 (≈ 2.47 µM)	1 (≈ 0.617 µM)	4 (≈ 2.47 µM)	4 (≈ 2.47 µM)	4 (≈ 2.47 µM)	1 (≈ 0.617 µM)	2 (≈ 1.23 µM)	1 (≈ 0.617 µM)	1 (≈ 0.617 µM)	2 (≈ 1.23 µM)	2 (≈ 1.23 µM)	MIC [1, 22]: 2 µg/mL (≈ 1.23 µM); MIC [1, 23]: 4 µg/mL (≈ 2.47 µM); MIC [1, 24]: 4 µg/mL (≈ 2.47 µM); MIC [1, 25]: 1 µg/mL (≈ 0.617 µM); MIC [1, 26]: 2 µg/mL (≈ 1.23 µM); MIC [1, 27]: 4 µg/mL (≈ 2.47 µM); MIC [1, 28]: 4 µg/mL (≈ 2.47 µM); MIC [1, 29]: 4 µg/mL (≈ 2.47 µM); MIC [1, 30]: 4 µg/mL (≈ 2.47 µM); MIC [1, 31]: 4 µg/mL (≈ 2.47 µM)
Gentamicin	≤500	>500	>500	≤500	>500	>500	≤500	≤500	>500	≤500	≤500	>500	≤500	>500	>500	≤500	≤500	≤500	>500	>500	MIC [1, 22]: >500 µg/mL; MIC [1, 23]: >500 µg/mL; MIC [1, 24]: >500 µg/mL; MIC [1, 25]: >500 µg/mL; MIC [1, 26]: ≤500 µg/mL; MIC [1, 27]: ≤500 µg/mL; MIC [1, 28]: ≤500 µg/mL; MIC [1, 29]: ≤500 µg/mL; MIC [1, 30]: ≤500 µg/mL; MIC [1, 31]: ≤500 µg/mL
CO[C@H]1/C=C/O[C@@]2(C)Oc3c(C)c(O)c4c(O)c(c(/C=N/N5CCN(C)CC5)c(O)c4c3C2=O)NC(=O)/C(C)=C\C=C\[C@H](C)[C@H](O)[C@@H](C)[C@@H](O)[C@@H](C)[C@H](OC(C)=O)[C@@H]1C [Rifampin]	1 (≈ 1.22 µM)	1 (≈ 1.22 µM)	>4	≤0.25	2 (≈ 2.43 µM)	2 (≈ 2.43 µM)	≤0.25	>4	>4	>4	1 (≈ 1.22 µM)	4 (≈ 4.86 µM)	4 (≈ 4.86 µM)	4 (≈ 4.86 µM)	2 (≈ 2.43 µM)	>4	4 (≈ 4.86 µM)	≤0.25	2 (≈ 2.43 µM)	2 (≈ 2.43 µM)	MIC [1, 22]: 0.5 µg/mL (≈ 0.608 µM); MIC [1, 23]: ≤0.25 µg/mL; MIC [1, 24]: >4 µg/mL; MIC [1, 25]: 2 µg/mL (≈ 2.43 µM); MIC [1, 26]: 2 µg/mL (≈ 2.43 µM); MIC [1, 27]: >4 µg/mL; MIC [1, 28]: >4 µg/mL; MIC [1, 29]: >4 µg/mL; MIC [1, 30]: 2 µg/mL (≈ 2.43 µM); MIC [1, 31]: 2 µg/mL (≈ 2.43 µM)
[H]/N=C(/N)N[C@H]1[C@H](O)[C@@H](O)[C@H](O[C@@H]2O[C@@H](C)[C@](O)(C=O)[C@H]2O[C@@H]2O[C@@H](CO)[C@H](O)[C@@H](O)[C@@H]2NC)[C@@H](N/C(N)=N\[H])[C@@H]1O [Streptomycin]	≤1000	>1000	>1000	≤1000	>1000	≤1000	>1000	≤1000	>1000	>1000	≤1000	≤1000	≤1000	>1000	>1000	≤1000	≤1000	≤1000	>1000	≤1000	MIC [1, 22]: ≤1000 µg/mL; MIC [1, 23]: >1000 µg/mL; MIC [1, 24]: >1000 µg/mL; MIC [1, 25]: >1000 µg/mL; MIC [1, 26]: ≤1000 µg/mL; MIC [1, 27]: ≤1000 µg/mL; MIC [1, 28]: >1000 µg/mL; MIC [1, 29]: ≤1000 µg/mL; MIC [1, 30]: >1000 µg/mL; MIC [1, 31]: >1000 µg/mL
CC(=O)NC[C@H]1CN(c2ccc(N3CCOCC3)c(F)c2)C(=O)O1 [Linezolid]	2 (≈ 5.93 µM)	2 (≈ 5.93 µM)	2 (≈ 5.93 µM)	1 (≈ 2.96 µM)	2 (≈ 5.93 µM)	2 (≈ 5.93 µM)	2 (≈ 5.93 µM)	4 (≈ 11.9 µM)	2 (≈ 5.93 µM)	2 (≈ 5.93 µM)	2 (≈ 5.93 µM)	1 (≈ 2.96 µM)	2 (≈ 5.93 µM)	2 (≈ 5.93 µM)	1 (≈ 2.96 µM)	2 (≈ 5.93 µM)	2 (≈ 5.93 µM)	4 (≈ 11.9 µM)	2 (≈ 5.93 µM)	2 (≈ 5.93 µM)	MIC [1, 22]: 2 µg/mL (≈ 5.93 µM); MIC [1, 23]: 2 µg/mL (≈ 5.93 µM); MIC [1, 24]: 4 µg/mL (≈ 11.9 µM); MIC [1, 25]: 2 µg/mL (≈ 5.93 µM); MIC [1, 26]: 2 µg/mL (≈ 5.93 µM); MIC [1, 27]: 2 µg/mL (≈ 5.93 µM); MIC [1, 28]: 2 µg/mL (≈ 5.93 µM); MIC [1, 29]: 4 µg/mL (≈ 11.9 µM); MIC [1, 30]: 2 µg/mL (≈ 5.93 µM); MIC [1, 31]: 2 µg/mL (≈ 5.93 µM)
